# Structures can show the parent of a compound that is named as a salt.
# Tests used:
# [1] = molecular target: T1, MFP-2 (Rattus norvegicus, UniProt P97852); assay: Binding experiments: compound-immobilized resins with rat brain lysate, SDS-PAGE and MALDI-TOF identification; conditions: first vs second binding experiment with fresh resin, SDS gel
# T1 construct: The supernatant thus obtained was used as the lysate; from tissue; host or cells: rat brain
# T1 sequence (P97852 1-735): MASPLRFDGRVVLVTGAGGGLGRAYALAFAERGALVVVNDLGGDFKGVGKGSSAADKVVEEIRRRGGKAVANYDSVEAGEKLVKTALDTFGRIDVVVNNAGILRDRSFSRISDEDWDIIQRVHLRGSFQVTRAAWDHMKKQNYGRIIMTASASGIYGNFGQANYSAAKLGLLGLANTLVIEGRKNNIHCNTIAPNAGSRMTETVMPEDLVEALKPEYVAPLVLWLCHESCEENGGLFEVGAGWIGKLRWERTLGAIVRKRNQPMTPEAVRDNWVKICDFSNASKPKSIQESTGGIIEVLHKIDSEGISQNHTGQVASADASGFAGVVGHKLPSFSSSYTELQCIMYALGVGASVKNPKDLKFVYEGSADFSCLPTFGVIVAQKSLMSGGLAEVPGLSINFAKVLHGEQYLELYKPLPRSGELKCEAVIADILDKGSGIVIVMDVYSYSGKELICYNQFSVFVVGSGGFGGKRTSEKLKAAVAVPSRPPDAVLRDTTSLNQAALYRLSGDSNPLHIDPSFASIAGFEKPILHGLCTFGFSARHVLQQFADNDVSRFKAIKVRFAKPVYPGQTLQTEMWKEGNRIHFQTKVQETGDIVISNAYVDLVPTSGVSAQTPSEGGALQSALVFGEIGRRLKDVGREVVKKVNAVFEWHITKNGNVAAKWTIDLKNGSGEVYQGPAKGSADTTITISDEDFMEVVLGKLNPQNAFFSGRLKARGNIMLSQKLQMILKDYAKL
# Experimental: The rat brain (2.4 g) was mixed in a mixed solution A (25 mM Tris-HCl pH 8.0, 0.5% Tween 20, 300 μM DCC (24 ml; N,N-diethyldithiocarbamate sodium)) and prepared as a homogenate, which was then centrifuged at 9,000 rpm for 10 minutes. The centrifugal supernatant was collected and further centrifuged at 50,000 rpm for 30 minutes. The supernatant thus obtained was used as the lysate. Note that all experiments were performed at 4° C. or on ice.
# Binding experiments were performed using the immobilizing resins with each test compound immobilized thereon, prepared in Examples 1 to 2, and the rat brain lysate prepared in Example 3(1), per the procedures shown below.
# Each resin (10 μl) and lysate (1 ml) were gently shaken at 4° C. for about 1 hour. Thereafter, centrifugal operation was performed, and each supernatant was collected carefully. Then, each supernatant was again mixed with a fresh compound-bound resin (10 μl). At this time, the separated compound-bound resin was gently stored at 4° C. as the resin of the first binding experiment. After the mixture was gently stirred for about 1 hour, centrifugal operation was performed, and the supernatant was removed. […] The sample solution thus obtained was separated using a commercially available SDS gel (BioRad readyGel J, 10% SDS, cat. NO=161-J341), and the SDS gel was analyzed (FIG. 2). […]
# [2] = molecular target: T2, recombinant MFP-2 (Homo sapiens, UniProt P51659); assay: Measurement of Kd value between MFP-2 and Intal using Biacore; assay type: binding; conditions: Biacore 3000; Intal-immobilized gold chip; MFP-2 25, 12.5 and 6.25 nM; global fitting
# T2 construct: His-tag (N); made in house; host or cells: E. coli (pDEST17, GATEWAY system)
# T2 sequence (P51659 1-736): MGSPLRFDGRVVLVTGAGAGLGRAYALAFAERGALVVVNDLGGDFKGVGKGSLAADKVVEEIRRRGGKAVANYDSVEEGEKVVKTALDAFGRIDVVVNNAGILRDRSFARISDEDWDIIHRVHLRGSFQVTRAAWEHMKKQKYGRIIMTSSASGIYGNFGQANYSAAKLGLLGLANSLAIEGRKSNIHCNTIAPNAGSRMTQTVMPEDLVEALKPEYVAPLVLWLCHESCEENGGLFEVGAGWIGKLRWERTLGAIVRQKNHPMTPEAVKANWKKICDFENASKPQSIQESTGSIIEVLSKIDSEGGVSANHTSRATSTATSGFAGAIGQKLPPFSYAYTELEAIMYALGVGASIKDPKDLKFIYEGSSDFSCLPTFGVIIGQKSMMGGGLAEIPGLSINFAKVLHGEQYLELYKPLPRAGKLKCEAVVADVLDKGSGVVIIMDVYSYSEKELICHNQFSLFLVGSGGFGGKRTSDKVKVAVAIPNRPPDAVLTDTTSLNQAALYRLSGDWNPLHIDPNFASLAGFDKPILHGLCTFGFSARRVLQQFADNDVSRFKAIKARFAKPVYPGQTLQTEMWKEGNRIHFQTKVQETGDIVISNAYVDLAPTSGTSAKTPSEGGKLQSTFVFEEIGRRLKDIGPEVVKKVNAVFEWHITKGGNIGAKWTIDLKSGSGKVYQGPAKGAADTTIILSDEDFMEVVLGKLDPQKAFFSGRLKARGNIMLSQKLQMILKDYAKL
# Experimental: The SIA kit Au from Biacore Company (#BR-1004-05) was immersed in Piranha solution (25% H2O2, 75% H2SO4) in a glass dish, and washed with shaking for 3 hours. Next, this chip was washed with Milli-Q Water and ethanol, and allowed to stand overnight as immersed in an ethanol solution (1.5 mM) of 11-amino-1-undecanethiol hydrochloride (Dojindo, #A423). After this was washed with N-methylpyrrolidone (NMP), it was placed in an NMP solution containing N-Fmoc-amido-dPEG4™-acid (50 mM), PyBop (50 mM) and diisopropylethylamine (Pr2Net; 100 mM) and shaken for 16 hours to cause the reaction. After the mixture was washed with NMP, the reaction was allowed to proceed in an acetonitrile (MeCN) solution containing acetic acid (10 mM), HOBt (10 mM) and WSCI (water-soluble carbodiimide; 10 mM) for 5.5 hours. […]
# An entry vector was prepared using the GATEWAY system from Invitrogen Company, and recombinant MFP-2 was expressed as a protein with N-terminal His-tag using an E. coli expression system (pDEST17). […]
# The Kd value was measured using Biacore 3000. […]
# After data were measured, differences from the control were determined using analytical software (BIACORE Company, BIA evaluation ver 4.1) and analyzed by global fitting to calculate the Kd value. As a result, the value was determined to be 0.64 nM.
SMILES,binding of MFP-2 to the compound-immobilized resin [1],Kd [2] [pM]
"O=C(O)c1cc(=O)c2c(OCC(O)COc3cccc4oc(C(=O)O)cc(=O)c34)cccc2o1 [Intal, disodium salt of 1,3-bis(2-carboxychromon-5-yloxy)-2-hydroxypropane]",specific binding,640
O=C(Cn1c(=O)sc2ccc(Cl)cc21)N1CCN(CCO)CC1 [tiaramide],specific binding,

# — US20090239916A1, “NOVEL DRUG DISCOVERY TARGET AND MEDICINE ACTING ON THE SAME” (Reverse Proteomics Research Institute Co., Ltd, priority 2004, published 2009)
